For test [1], the target named is Mitogen-activated protein kinase kinase kinase 4 (Homo sapiens) (UniProt Q9Y6R4). Description: Binding affinity to wild-type human partial length MAP3K4 (G1319 to E1608 residues) expressed in Escherichia coli BL21 at 1 uM by Kinomescan method relative to control.
In a further test the test system is HEK293. The experiment in a line: Binding affinity to wild-type Mycobacterium tuberculosis partial length PKNB (M1 to G279 residues) expressed in HEK293 cells at 1 uM by Kinomescan method relative to control. It is filed as cell-based.
Test [2] concerns the target Serine/threonine-protein kinase D1 (Homo sapiens) (UniProt Q15139). The experiment in a line: Binding affinity to wild-type human partial length PRKD1 (G551 to E870 residues) expressed in Escherichia coli BL21 at 1 uM by Kinomescan method relative to control.
Test [3] has as its target Cyclin-dependent kinase 4/cyclin D1 (Homo sapiens) (UniProt P11802+P24385). The experiment in a line: Binding affinity to wild-type human full length CDK4/cyclinD1 (M1 to E303 residues) expressed in HEK293 cells at 1 uM by Kinomescan method relative to control. It is filed as cell-based.
Test [4] has as its target Myotonin-protein kinase (Homo sapiens) (UniProt Q09013). The experiment in a line: Binding affinity to wild-type human partial length DMPK (V47 to V415 residues) expressed in Escherichia coli BL21 at 1 uM by Kinomescan method relative to control.
The target in test [5] is TGF-beta receptor type-1 (Homo sapiens) (UniProt P36897). Description: Binding affinity to wild-type human partial length TGFBR1 (D179 to M503 residues) expressed in Escherichia coli BL21 at 1 uM by Kinomescan method relative to control.
Sequence of TGF-beta receptor type-1 (Homo sapiens) (P36897 whole entry, the tested form may be a part): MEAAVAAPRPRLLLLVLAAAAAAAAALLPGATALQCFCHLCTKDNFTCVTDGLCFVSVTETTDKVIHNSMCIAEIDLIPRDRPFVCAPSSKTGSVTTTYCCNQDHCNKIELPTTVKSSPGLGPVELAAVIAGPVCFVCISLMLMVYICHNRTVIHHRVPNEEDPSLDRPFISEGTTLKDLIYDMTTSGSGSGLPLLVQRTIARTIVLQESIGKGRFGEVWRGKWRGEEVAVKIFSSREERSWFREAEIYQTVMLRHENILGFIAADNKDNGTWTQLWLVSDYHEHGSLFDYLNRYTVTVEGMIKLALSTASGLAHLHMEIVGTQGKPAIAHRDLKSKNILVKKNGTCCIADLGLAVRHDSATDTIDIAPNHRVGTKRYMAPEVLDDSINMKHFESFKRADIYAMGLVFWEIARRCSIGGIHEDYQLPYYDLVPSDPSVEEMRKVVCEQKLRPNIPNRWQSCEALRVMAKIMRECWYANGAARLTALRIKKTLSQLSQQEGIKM
For test [6], the target named is Fibroblast growth factor receptor 4 (Homo sapiens) (UniProt P22455). The experiment in a line: Binding affinity to wild-type human partial length FGFR4 (G402 to E713 residues) expressed in Escherichia coli BL21 at 1 uM by Kinomescan method relative to control.
Sequence of Fibroblast growth factor receptor 4 (Homo sapiens) (P22455 22-802 limits assumed): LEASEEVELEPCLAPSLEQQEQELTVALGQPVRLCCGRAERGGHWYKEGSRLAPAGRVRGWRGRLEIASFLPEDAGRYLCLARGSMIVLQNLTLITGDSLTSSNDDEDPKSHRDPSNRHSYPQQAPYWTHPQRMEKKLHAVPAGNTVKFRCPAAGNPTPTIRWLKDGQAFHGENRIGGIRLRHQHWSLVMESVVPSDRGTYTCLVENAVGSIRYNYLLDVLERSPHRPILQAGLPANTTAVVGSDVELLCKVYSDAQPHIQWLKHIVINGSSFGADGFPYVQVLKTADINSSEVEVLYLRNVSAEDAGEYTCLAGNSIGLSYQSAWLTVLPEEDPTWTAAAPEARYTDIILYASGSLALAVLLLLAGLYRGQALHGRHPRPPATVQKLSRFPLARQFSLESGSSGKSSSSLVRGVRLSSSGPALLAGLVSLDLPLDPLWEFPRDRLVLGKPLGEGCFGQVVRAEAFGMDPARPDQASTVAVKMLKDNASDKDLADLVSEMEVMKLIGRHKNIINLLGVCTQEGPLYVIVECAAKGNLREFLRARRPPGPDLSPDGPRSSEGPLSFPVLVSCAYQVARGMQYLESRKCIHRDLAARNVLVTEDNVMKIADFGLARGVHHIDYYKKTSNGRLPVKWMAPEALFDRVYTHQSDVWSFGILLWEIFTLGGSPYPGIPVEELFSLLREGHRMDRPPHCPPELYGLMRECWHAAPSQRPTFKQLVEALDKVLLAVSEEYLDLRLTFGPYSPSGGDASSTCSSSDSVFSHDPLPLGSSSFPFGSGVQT
In test [7] the test system is Epidermal growth factor receptor (Homo sapiens), P00533 [L858R]. The experiment in a line: Binding affinity to human partial length EGFR L858R mutant (R669 to V1011 residues) expressed in Escherichia coli BL21 at 1 uM by Kinomescan method relative to control.
Test [8] has as its target Homeodomain-interacting protein kinase 1 (Homo sapiens) (UniProt Q86Z02). Description: Binding affinity to wild-type human partial length HIPK1 (M146 to I555 residues) expressed in HEK293 cells at 1 uM by Kinomescan method relative to control. It is filed as cell-based.
Test [9] has as its target Activated CDC42 kinase 1 (Homo sapiens) (UniProt Q07912). The experiment in a line: Binding affinity to wild-type human partial length TNK2 (S159 to D474 residues) expressed in Escherichia coli BL21 at 1 uM by Kinomescan method relative to control.
The target of test [10] is High affinity nerve growth factor receptor (Homo sapiens) (UniProt P04629). Description: Binding affinity to wild-type human partial length TRKA (G475 to G790 residues) expressed in HEK293 cells at 1 uM by Kinomescan method relative to control. The test is classed as cell-based.
Test [11] addresses Wee1-like protein kinase (Homo sapiens) (UniProt P30291). Description: Binding affinity to wild-type human partial length WEE1 (M291 to K575 residues) expressed in Escherichia coli BL21 at 1 uM by Kinomescan method relative to control.
Test [12] has as its target Ephrin type-B receptor 6 (Homo sapiens) (UniProt O15197). The experiment in a line: Binding affinity to wild-type human partial length EPHB6 (Q634 to P948 residues) expressed in HEK293 cells at 1 uM by Kinomescan method relative to control. The test is classed as cell-based.
In test [13] the target is Homeodomain-interacting protein kinase 3 (Homo sapiens) (UniProt Q9H422). The experiment in a line: Binding affinity to wild-type human partial length HIPK3 (M153 to N562 residues) expressed in HEK293 cells at 1 uM by Kinomescan method relative to control. It is filed as cell-based.
Test [14] addresses Ribosomal protein S6 kinase beta-1 (Homo sapiens) (UniProt P23443). Description: Binding affinity to wild-type human partial length S6K1 (M1 to S421 residues) expressed in HEK293 cells at 1 uM by Kinomescan method relative to control. It is filed as cell-based.
For test [15], the target named is Tyrosine-protein kinase Mer (Homo sapiens) (UniProt Q12866). The experiment in a line: Binding affinity to wild-type human partial length MERTK (R557 to L884 residues) expressed in Escherichia coli BL21 at 1 uM by Kinomescan method relative to control.
Test [16] has as its system Tyrosine-protein kinase ABL1 (Homo sapiens), P00519 [F317L]. Description: Binding affinity to human phosphorylated ABL1 F317L mutant (S229 to K512 residues) expressed in HEK293 cells at 1 uM by Kinomescan method relative to control. It is filed as cell-based.
Test [17] deals with Serine/threonine-protein kinase 38-like (Homo sapiens) (UniProt Q9Y2H1). The experiment in a line: Binding affinity to wild-type human partial length NDR2 (N34 to E447 residues) expressed in Escherichia coli BL21 at 1 uM by Kinomescan method relative to control.
Test [18] has as its target Serine/threonine-protein kinase RIO2 (Homo sapiens) (UniProt Q9BVS4). The experiment in a line: Binding affinity to wild-type human partial length RIOK2 (M1 to D313 residues) expressed in HEK293 cells at 1 uM by Kinomescan method relative to control. The test is classed as cell-based.
For test [19], the target named is Serine/threonine-protein kinase 36 (Homo sapiens) (UniProt Q9NRP7). Description: Binding affinity to wild-type human partial length STK36 (M1 to T271 residues) expressed in Escherichia coli BL21 at 1 uM by Kinomescan method relative to control.
In test [20] the test system is Tyrosine-protein kinase ABL1 (Homo sapiens), P00519 [Q252H]. Description: Binding affinity to human non-phosphorylated ABL1 Q252H mutant (S229 to K512 residues) expressed in HEK293 cells at 1 uM by Kinomescan method relative to control. The test is classed as cell-based.
The target of test [21] is Serine/threonine-protein kinase tousled-like 1 (Homo sapiens) (UniProt Q9UKI8). Description: Binding affinity to wild-type human partial length TLK1 (K447 to A754 residues) expressed in Escherichia coli BL21 at 1 uM by Kinomescan method relative to control.
Test [22] concerns the target Ribosomal protein S6 kinase alpha-6 (Homo sapiens) (UniProt Q9UK32). Description: Binding affinity to wild-type human partial length C-terminal RSK4 kinase domain 2 (I401 to Y711 residues) expressed in Escherichia coli BL21 at 1 uM by Kinomescan method relative to control.

For 2 molecules, Activity results are on record in ChEMBL document CHEMBL4184148 (Bioorg Med Chem Lett, 2017).

Sequence of Mitogen-activated protein kinase kinase kinase 4 (Homo sapiens) (Q9Y6R4 whole entry, the tested form may be a part): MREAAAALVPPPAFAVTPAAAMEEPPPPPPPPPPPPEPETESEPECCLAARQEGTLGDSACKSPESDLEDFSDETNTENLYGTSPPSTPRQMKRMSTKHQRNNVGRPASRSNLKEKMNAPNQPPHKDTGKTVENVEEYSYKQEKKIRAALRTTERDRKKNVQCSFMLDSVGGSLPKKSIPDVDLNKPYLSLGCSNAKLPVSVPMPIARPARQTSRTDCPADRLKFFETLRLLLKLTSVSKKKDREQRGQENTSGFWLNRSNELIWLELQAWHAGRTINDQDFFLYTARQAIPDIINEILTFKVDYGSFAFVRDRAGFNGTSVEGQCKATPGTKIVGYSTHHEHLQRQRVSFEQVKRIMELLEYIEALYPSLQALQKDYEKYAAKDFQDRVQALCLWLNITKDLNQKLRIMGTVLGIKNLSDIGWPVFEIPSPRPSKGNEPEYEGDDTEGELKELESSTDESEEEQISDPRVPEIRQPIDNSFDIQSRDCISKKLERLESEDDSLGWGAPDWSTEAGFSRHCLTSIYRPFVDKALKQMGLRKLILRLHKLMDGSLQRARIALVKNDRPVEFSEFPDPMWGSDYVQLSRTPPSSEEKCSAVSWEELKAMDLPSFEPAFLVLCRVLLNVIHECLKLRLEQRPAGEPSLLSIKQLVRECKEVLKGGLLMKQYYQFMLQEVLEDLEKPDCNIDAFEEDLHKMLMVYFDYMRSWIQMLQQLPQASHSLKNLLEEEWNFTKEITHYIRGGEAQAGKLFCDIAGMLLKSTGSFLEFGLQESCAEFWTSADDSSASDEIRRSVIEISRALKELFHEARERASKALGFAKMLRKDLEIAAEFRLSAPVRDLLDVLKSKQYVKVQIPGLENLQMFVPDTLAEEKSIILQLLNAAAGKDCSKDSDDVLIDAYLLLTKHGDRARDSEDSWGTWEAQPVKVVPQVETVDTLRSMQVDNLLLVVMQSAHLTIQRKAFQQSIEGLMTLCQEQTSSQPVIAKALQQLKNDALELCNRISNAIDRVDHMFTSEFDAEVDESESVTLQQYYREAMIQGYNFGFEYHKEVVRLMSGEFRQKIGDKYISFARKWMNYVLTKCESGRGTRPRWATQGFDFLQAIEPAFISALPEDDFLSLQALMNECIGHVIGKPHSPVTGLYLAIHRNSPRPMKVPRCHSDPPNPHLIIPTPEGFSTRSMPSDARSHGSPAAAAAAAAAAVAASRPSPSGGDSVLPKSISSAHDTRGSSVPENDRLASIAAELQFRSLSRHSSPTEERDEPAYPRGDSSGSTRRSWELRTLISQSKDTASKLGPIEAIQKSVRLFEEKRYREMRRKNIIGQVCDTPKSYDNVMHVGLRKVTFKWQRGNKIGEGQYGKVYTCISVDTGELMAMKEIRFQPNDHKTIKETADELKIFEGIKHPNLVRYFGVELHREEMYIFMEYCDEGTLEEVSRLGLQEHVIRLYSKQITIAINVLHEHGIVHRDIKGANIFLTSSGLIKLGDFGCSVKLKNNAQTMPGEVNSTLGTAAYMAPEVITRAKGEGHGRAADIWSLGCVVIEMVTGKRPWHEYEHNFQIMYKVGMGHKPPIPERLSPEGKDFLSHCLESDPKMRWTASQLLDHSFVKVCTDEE
Sequence of Serine/threonine-protein kinase D1 (Homo sapiens) (Q15139 whole entry, the tested form may be a part): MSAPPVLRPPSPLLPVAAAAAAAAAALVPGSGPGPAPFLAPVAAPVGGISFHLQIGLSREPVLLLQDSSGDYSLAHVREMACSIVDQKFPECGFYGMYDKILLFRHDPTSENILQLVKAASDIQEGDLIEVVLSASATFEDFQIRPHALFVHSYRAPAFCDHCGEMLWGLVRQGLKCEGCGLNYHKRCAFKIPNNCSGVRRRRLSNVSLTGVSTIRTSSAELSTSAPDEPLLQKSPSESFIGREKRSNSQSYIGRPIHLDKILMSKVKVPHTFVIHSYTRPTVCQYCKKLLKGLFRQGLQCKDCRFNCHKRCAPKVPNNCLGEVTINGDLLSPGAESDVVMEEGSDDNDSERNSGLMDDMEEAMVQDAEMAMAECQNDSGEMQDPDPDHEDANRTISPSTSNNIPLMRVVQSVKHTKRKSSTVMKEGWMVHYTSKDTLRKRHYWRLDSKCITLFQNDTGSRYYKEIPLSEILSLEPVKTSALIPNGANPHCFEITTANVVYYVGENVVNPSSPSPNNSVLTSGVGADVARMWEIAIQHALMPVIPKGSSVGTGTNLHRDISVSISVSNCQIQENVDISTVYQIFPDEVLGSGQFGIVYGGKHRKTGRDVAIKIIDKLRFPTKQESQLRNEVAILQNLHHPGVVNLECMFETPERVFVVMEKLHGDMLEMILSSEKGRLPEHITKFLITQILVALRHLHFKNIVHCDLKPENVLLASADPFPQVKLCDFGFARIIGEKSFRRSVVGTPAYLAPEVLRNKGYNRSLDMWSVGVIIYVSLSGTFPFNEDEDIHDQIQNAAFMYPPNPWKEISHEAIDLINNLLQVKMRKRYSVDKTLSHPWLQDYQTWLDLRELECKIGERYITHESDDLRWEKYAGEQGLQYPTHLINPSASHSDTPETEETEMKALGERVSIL
Sequence of Homeodomain-interacting protein kinase 1 (Homo sapiens) (Q86Z02 whole entry, looked up, the tested form may be a part): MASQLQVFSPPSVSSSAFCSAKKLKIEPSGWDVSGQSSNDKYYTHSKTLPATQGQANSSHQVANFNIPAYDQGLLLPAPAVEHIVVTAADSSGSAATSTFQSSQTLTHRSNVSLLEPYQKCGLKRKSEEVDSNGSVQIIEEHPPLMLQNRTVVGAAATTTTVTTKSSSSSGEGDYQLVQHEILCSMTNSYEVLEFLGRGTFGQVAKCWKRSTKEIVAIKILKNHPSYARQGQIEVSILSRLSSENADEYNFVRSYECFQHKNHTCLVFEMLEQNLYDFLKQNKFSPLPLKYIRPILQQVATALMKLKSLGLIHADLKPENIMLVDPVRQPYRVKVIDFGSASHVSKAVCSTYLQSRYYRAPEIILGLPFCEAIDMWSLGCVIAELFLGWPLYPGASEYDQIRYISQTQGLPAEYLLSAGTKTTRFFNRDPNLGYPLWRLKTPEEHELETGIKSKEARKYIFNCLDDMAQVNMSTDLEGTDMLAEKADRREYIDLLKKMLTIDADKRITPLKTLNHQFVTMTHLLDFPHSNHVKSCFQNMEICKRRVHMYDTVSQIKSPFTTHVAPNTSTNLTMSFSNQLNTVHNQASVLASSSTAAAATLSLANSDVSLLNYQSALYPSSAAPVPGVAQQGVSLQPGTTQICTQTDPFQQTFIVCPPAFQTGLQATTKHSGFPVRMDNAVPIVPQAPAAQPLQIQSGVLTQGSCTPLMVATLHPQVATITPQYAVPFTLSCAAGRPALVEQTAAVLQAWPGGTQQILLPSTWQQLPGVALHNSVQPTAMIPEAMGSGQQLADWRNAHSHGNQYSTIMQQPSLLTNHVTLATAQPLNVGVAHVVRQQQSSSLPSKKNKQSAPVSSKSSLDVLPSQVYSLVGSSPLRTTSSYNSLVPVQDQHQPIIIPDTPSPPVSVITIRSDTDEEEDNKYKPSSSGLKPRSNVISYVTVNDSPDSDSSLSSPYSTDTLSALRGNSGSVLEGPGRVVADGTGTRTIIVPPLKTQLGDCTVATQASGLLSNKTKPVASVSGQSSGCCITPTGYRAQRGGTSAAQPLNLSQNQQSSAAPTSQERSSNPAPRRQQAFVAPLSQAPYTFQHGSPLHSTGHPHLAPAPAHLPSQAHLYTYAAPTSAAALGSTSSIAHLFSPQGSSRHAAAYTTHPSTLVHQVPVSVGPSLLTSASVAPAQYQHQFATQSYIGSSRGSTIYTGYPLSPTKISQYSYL

In the case of `CCC(=O)Nc1ccc(C(=O)Nc2ccc(Nc3ncc4c(n3)N(C)c3ccc(C)cc3C(=O)N4C)cc2)cc1`, the Activity was 100% in test [1]; 68% in the test on HEK293; 97% in test [2]; 100% in test [3]; 100% in [4]; 97% in test [5]. Besides, the Activity in test [6] came to 97%; in test [7], 65%; in test [8], 67%; in test [9] it was 86%; in test [10] it was 78%; in test [11], 100%. Moreover, the Activity in [12] turned out to be 77%; in test [13] it was 67%; in [14], 100%; in test [15] it was 100%; in test [16], 100%; in test [17] it was 79%. Besides, the Activity is 58% in [18]; 93% in test [19]; 64% in test [20]; 99% in [21]; 100% in test [22].

As to `C=CC(=O)Nc1ccc(C(=O)Nc2ccc(Nc3ncc4c(n3)N(C)c3ccc(C)cc3C(=O)N4C)cc2)cc1`, the Activity was 100% in test [1]; 94% with HEK293; 93% in [2]; 94% in [3]; 96% in [4]; 89% in [5]. Further, the Activity in [6] was found to be 74%; in test [7], 86%; in test [8], 87%; in test [9], 96%; in [10], 79%; in test [11], 100%. The Activity in [12] was 96%; in test [13], 95%; in test [14] it was 91%; in [15], 80%; in [16], 92%; in test [17] it was 97%. Also, the Activity is 93% in test [18]; 100% in test [19]; 68% in test [20]; 94% in [21]; 100% in [22].
